From patent US20260184700A1, “PDK1 REGULATORY COMPOUND AND COMPOSITION CONTAINING THE SAME” (PROVIBIO CO., LTD., priority 2024, published 2026)

Key:
[1] = system: HCT-116 colon cancer cell lines; test: Invasion Assay using Matrigel, HCT-116; format: cell-based, human; settings: HCT-116, Matrigel invasion, 24 hours treatment
Method: To evaluate the metastasis inhibitory efficacy of the compounds of the present invention on HCT-116 colon cancer cell lines, an Invasion Assay using Matrigel was performed to assess the cells' invasion ability.
First, Matrigel was thawed on ice in RPMI-1640 medium without FBS, then diluted with DMEM at a ratio of 1:20.
The diluted Matrigel mixture was applied to the upper chamber at 100 μl per well, and 750 μl of RPMI-1640 without FBS was added to the lower chamber.
The plates were then incubated at 37° C. for 1 hour to allow the Matrigel to solidify.
After coating, the Matrigel mixture in the upper chamber was removed using a pipette, and the chamber was washed with RPMI without FBS.
Human-derived colorectal cancer cell line HCT-116, obtained from the Korean Cell Bank, was cultured in RPMI-1640 medium containing 10% FBS.
Following stabilization, the cells were harvested using Trypsin-EDTA treatment, centrifuged at 1,200 rpm for 3 minutes, the supernatant was removed, and the cells were resuspended in the same medium, the medium in the lower chamber was replaced with 750 μl of RPMI-1640 supplemented with 10% FBS, and the cells were seeded into the upper chamber at a density of 5×10^4 cells/well.
The cells were cultured for 24 hours after attachment, and then the compounds according to the present invention (G078, G085, G086, G088, G089, PBK-2024-010, PBK-2025-010, PBK-2025-013, PBK-2025-016) and the control substance DMSO were diluted and added to the upper chamber after removing the medium.
Additionally, the medium in the lower chamber was replaced with fresh RPMI-1640 containing FBS, and the culture was continued.
After an additional 24 hours, the medium was removed, and 1 ml of methanol was added for 10 minutes to fix the cells.
Subsequently, 1 ml of Hematoxylin was added and reacted for 5 minutes, followed by 1 ml of Eosin, which was reacted for 30 seconds. The sample was then washed with distilled water (DW).
After staining was complete, any remaining cells in the upper chamber were removed. Finally, the infiltrated cells were observed under a microscope, photographed, and the degree of infiltration was analyzed.

[2] = system: Human B Lymphocyte cell line, SU-DHL-8; test: Relative cell viability, CCK-8, SU-DHL-8; format: cell-based; settings: 48 hours
Method: Human-derived B lymphoma cell line SU-DHL-8 (Cat. #CRL-2961) purchased from ATCC was cultured in RPMI-1640 medium containing 10% FBS, 100 U/mL penicillin, and 100 μg/mL streptomycin.
The cell culture medium was then harvested, centrifuged at 1,300 rpm for 5 minutes, and the supernatant was removed. The cells were resuspended in the same medium and dispensed into a 96-well plate (Costar 96-well cell culture plate, Corning) at 90 μL per well, resulting in the conditions specified in Table 5.
Then, 10 μL of CCK-8 was added to each well, and the plates were incubated again at 37° C. in a 5% CO2 incubator for 4 hours.
In other words, when the survival rate of untreated cells (DMSO) is set at 100%, the relative cell survival rate in each group treated with the drug at different concentrations is indicated.

[3] = system: T cells isolated from mouse spleen; test: T cell proliferation inhibition, CFSE flow cytometry, CD3/CD28 activation; format: cell-based; settings: CD3/CD28 activated, 3 days
Method: To verify the T cell proliferation inhibitory effect of the compounds according to the present invention, the following experiment was performed based on flow cytometry analysis using carboxyfluorescein diacetate succinimidyl ester (CFSE), a fluorescent dye that binds to intracellular molecules via covalent bonds.
Spleens were extracted from 7-week-old C57BL/6 mice, ground, and then separated into single cells using a strainer (40 μm pore size, SPL). Red blood cells were removed using ACK (Ammonium-Chloride-Potassium) lysis buffer to isolate white blood cells.
Finally, using a MACS Magnetic Stand and LS column, T cells were isolated from the spleen.
The T cells isolated from the spleen were resuspended in 1 mL of free medium (RPMI-1640+200 U/mL penicillin+200 μg/mL streptomycin), and 0.3 μL of CFSE (10 mM) was added. The mixture was incubated at 37° C. for 5 minutes.
Free medium (10 mL) was added to stop the reaction, and the cells were centrifuged to obtain the cell pellet.
RPMI 1640 medium containing 10% FBS, 100 U/mL penicillin, 100 μg/mL streptomycin, and resuspended the cells. The cells were then seeded into a 96-well plate at a density of 2×10^5 cells per well and activated with CD3 and CD28 antibodies (0.5 μg/mL each) to activate T cells.
The compound diluted in DMSO was added at concentrations of 10 nM, 100 nM, 1 μM, 10 μM, 30 μM, and 50 μM, with three wells per concentration, and cultured at 37° C. and 5% CO2 for three days. The cells were then analyzed using a FACS Canto instrument.
The proliferation inhibition rate (%) was calculated using the following formula: […]

| Compound | number of infiltrated cells [1] | Relative cell viability (%) ([2]; SU-DHL-8, 1 μM) | Relative cell viability (%) ([2]; SU-DHL-8, 10 μM) | Relative cell viability (%) ([2]; SU-DHL-8, 30 μM) | Relative cell viability (%) ([2]; SU-DHL-8, 50 μM) | Proliferation inhibition rate (%) ([3]; compound 100 nM) | Proliferation inhibition rate (%) ([3]; compound 1 μM) | Proliferation inhibition rate (%) ([3]; compound 10 μM) | Proliferation inhibition rate (%) ([3]; compound 30 μM) | Proliferation inhibition rate (%) ([3]; compound 50 μM) | Proliferation inhibition rate (%) ([3]; compound 10 nM) |
| --- | --- | --- | --- | --- | --- | --- | --- | --- | --- | --- | --- |
| Nc1ncccc1C(=O)NCCCCCCCCCCCCN1CCNCC1 [Compound 5, 2-Amino-N-(12-(piperazin-1-yl)dodecyl)-nicotinamide] | reduction in the number of infiltrated cells |  |  |  |  |  |  |  |  |  |  |
| CN1CCN(C(=O)OC(C)(C)C)CC1CCCCCCCCNC(=O)c1cccnc1N (centres unmarked) [Compound 12, tert-Butyl 3-(8-(2-aminonicotinamide)octyl)-4-methylpiperazine-1-carboxylate] |  | 7.60% | 3.79% | 1.64% | 1.13% |  |  |  |  |  |  |
| CC1CN(CCCCCCCCCCCCNC(=O)c2cccnc2N)CC(C)O1 (centres unmarked) [Compound 21, 2-Amino-N-(12-(2,6-dimethylmorpholino)dodecyl) nicotinamide] |  |  |  | 3.70% |  | 100.00% | 100.00% | 100.00% | 100.00% | 100.00% |  |
| O=C(NCCCCCCCCCCCCN1CCN2CCCC2C1)c1cccnc1 (centres unmarked) [Compound 23, N-(12-(hexahydropyrrolo[1,2-a]pyrazin-2 (1H)-yl)dodecyl)nicotinamide] | reduction in the number of infiltrated cells |  |  |  |  |  |  |  |  |  |  |
| CC1CCN(CCCCCCCCCCCCNC(=O)c2cccnc2N)C1 (centres unmarked) [Compound 24, 2-Amino-N-(12-(3-methylpyrrolidin-1-yl)dodecyl) nicotinamide] |  |  |  | 0.62% |  | 100.00% | 100.00% | 100.00% | 100.00% | 100.00% |  |
| Nc1ncccc1C(=O)NCCCCCCCCCCCCN1CCS(=O)(=O)CC1 [Compound 25, 2-Amino-N-(12-(1,1-dioxidothiomorpholino)dodecyl) nicotinamide] |  |  |  | 0.11% | 0.95% |  | 100.00% | 100.00% | 100.00% | 100.00% |  |
| Nc1ncccc1C(=O)NCCCCCCCCCCCCN1CCC(F)C1 (centres unmarked) [Compound 26, 2-Amino-N-(12-(3-fluoropyrrolidin-1-yl)dodecyl) nicotinamide] |  | 1.70% |  | 0.05% |  | 100.00% | 100.00% | 100.00% | 100.00% | 100.00% |  |
| CC1CNCCN1CCCCCCCCCCCCNC(=O)c1cccnc1N (centres unmarked) [Compound 35, 2-Amino-N-(12-(2-methylpiperazin-1-yl)dodecyl) nicotinamide] |  |  | 0.64% | 0.42% |  | 100.00% | 100.00% | 100.00% | 100.00% | 100.00% |  |
| Nc1ncccc1C(=O)NCCCCCCCCCCCCN1CCC(Oc2ccncc2)CC1 [Compound 38, 2-Amino-N-(12-(4-(pyridin-4-yloxy)piperidin-1-yl)dodecyl) nicotinamide] |  |  | 3.30% |  |  | 100.00% | 100.00% | 100.00% | 100.00% | 100.00% |  |
| CC(C)(C)OC(=O)N[C@H]1CCN(CCCCCCCCCCCCNC(=O)c2cccnc2N)C1 [Compound 49, tert-Butyl(S)-(1-(12-(2-aminonicotinamido)dodecyl)pyrrolidin-3-yl)carbamate] | reduction in the number of infiltrated cells |  |  |  |  |  |  |  |  |  |  |
| Cl.Nc1ncccc1C(=O)NCCCCCCCCCCCCN1CC[C@H](N)C1 [Compound 50, (S)-2-Amino-N-(12-(3-aminopyrrolidin-1-yl)dodecyl) nicotinamide Hydrochloride] |  | 9.20% |  |  |  | 100.00% | 100.00% | 100.00% | 100.00% | 100.00% |  |
| Cc1ccc(OC2CCN(CCCCCCCCCCCCNC(=O)c3cccnc3N)CC2)cc1 [Compound 51, 2-Amino-N-(12-(4-(p-tolyloxy)piperidin-1-yl)dodecyl) nicotinamide] |  |  |  | 0.89% | 0.48% |  | 100.00% | 100.00% | 100.00% | 100.00% | 0.77% |
| Nc1ncccc1C(=O)NCCCCCCCCCCCCN1CC(F)C1 [Compound 52, 2-Amino-N-(12-(3-fluoroazetidin-1-yl)dodecyl)nicotinamide] | reduction in the number of infiltrated cells |  |  |  |  |  |  |  |  |  |  |
| Cc1ccc(C2CCN(CCCCCCCCCCCCNC(=O)c3cccnc3N)CC2)cc1 [Compound 55, 2-Amino-N-(12-(4-(p-tolyl)piperidin-1-yl)dodecyl) nicotinamide] |  |  |  | 1.10% | 0.97% | 100.00% | 100.00% | 100.00% | 100.00% | 100.00% |  |
| Nc1ncccc1C(=O)NCCCCCCCCCCCCN1CCOC1=O [Compound 127, 2-amino-N-(12-(2-oxooxazolidin-3-yl)dodecyl) nicotinamide] |  |  |  |  |  |  |  | 100.00% | 100.00% | 100.00% |  |
| Nc1ncccc1C(=O)NCCCCCCCCCCCCNC1CCOC1 (centres unmarked) [Compound 128, 2-amino-N-(12-((tetrahydrofuran-3-yl)amino)dodecyl) nicotinamide] |  |  |  |  |  | 100.00% | 100.00% | 100.00% | 100.00% | 100.00% |  |
| Nc1ncccc1C(=O)NCCCCCCCCCCCCN1CC=CC1 [Compound 129, 2-amino-N-(12-(2,5-dihydro-1H-pyrrol-1-yl)dodecyl) nicotinamide] |  |  |  |  |  | 90.00% | 100.00% | 100.00% | 100.00% | 100.00% | 0.00% |
